Experimental data reported in patent US20250332212A1, “METHOD FOR TREATING OR PREVENTING ALOPECIA” (Suzhou Mingren Pharmaceutical Biotechnology Co., Ltd., priority 2024, published 2025).
Square brackets hold non-standard residues; d marks the D form. Ends that are not written are not given here. pS = N[C@@H](COP(=O)(O)O)C(=O)O

What was measured:
[1] = system: SRD5A2; assay: qPCR of SRD5A2 mRNA in skin tissue of model mice; format: in vivo, mouse; settings: model II, P>0.05
Method: 6.1) Sample preparation: 15-20 mg of mouse skin tissue was placed in a 1.5 mL centrifuge tube, and 600 μL of pre-cooled lysate was quickly added, and homogenized with an electric homogenizer. The homogenate obtained was blown gently 10 times, left at room temperature for 3-5 min, then centrifuged at 14,000×g for 5 min, and the supernatant was transferred to a new centrifuge tube with a pipette gun of suitable volume.
6.10) Reverse transcribe the RNA into cDNA according to the instructions of the reverse transcription kit, and then carry out subsequent experiments or store at −20° C. for later use.
(§1) 7.1) Dilute the specific gene amplification primers to 10 µM in ddH2O, prepare the qPCR reaction system according to the instructions in the kit and add them sequentially into a 384-well plate.
(§2) 7.3) Relative mRNA expression levels of genes were calculated by the […] relative quantification method using GAPDH as an internal reference.

[2] = system: integrin αv; assay: Integrin αv expression in skin tissue (qPCR, immunoblotting, immunofluorescence); format: in vivo, mouse
Text: In this example, the mRNA expression levels of RGD-targeting molecules in the skin tissues of three groups of mice, namely, the AGA model control group, the model group and the JP1-treated group, were further examined.
To verify whether JP1 targeted integrin molecules are localized in hair follicles in the skin tissue, this example detected the expression levels, tissue localization, and distribution of integrin αv and integrin β1 in the skin tissue of the mouse model in Example 6 using immunofluorescence staining.
(§3) 4.1) Protein extraction: 70 mg of skin tissue was placed in a 1.5 mL centrifuge tube, and 500 μL of tissue lysate RIPA containing protease inhibitor and phosphatase inhibitor was added. The tissue was placed on an ice box, pulverized by a tissue grinder, and then ultrasonically crushed to obtain a tissue suspension, which was then placed in a rotary windmill at 4° C. to be lysed for 2 h. The centrifuge was set at 12,000×g, 4° C., centrifuged for 15 min, and the supernatant was collected as the total protein.
(§4) 5.1) Heating of protein samples: the total protein content of each tissue was 50 μg; calculate the volume of a corresponding protein sample, make up the volume with saline to 16 μL, then add 4 μL of 5×SDS sampling buffer, heat at 100° C. for 5 min, and then cool at room temperature and store at −20° C.
as §1, §2
(§5) 9.5) Primary antibody incubation: the tissue was circled by the histochemical pen, about 50 μL of primary antibody was added dropwise to the tissue, and incubated in a wet box overnight at 4° C., washed 3 times with PBS.

[3] = system: SP1; assay: SP1 expression in skin tissue (qPCR, immunoblotting, immunofluorescence); format: in vivo, mouse
Method: as §3, §4, §1, §2, §5

[4] = system: TP-induced AGA model mice; assay: TP-induced AGA model, Animal model III (specific inhibition of SP1 by MTA); format: in vivo, C57BL/6J male mice
Text: To verify that JP1 promotes AGA follicle regeneration through the activation of the Wnt/β-catenin signaling pathway via the MAPK/E2F1/SP1 signaling axis, the example constructed a mouse model of AGA with specific inhibition of SP1 (FIG. 15A). The specific experimental details are described according to “Animal model III” of “1. TP-induced AGA model” in “Experimental Methods”.
To further confirm that JP1 promotes the growth of hair follicles on the back of AGA model mice through the SP1-regulated Wnt/β-catenin signaling pathway at the histomorphometric level, H&E staining was performed on the skin tissues of the model mice of Example 15 at different time points (days 4, 8, and 12 post-intervention).
The mice used in this study were 5-week-old C57BL/6J male mice (18-20 g), which were purchased from Jiangsu Jicui Pharmachem Biotechnology Co. All the animals used in the experiments were housed in the SPF-level environment of the Medical Laboratory Animal Center of Nanjing Medical University, and the relevant animal experimental operations were approved by the Animal Ethics Committee of Nanjing Medical University. The control group was left untreated, and the other groups were injected with TP subcutaneously on their backs every day. Two weeks later, the hair on the backs of the mice was shaved with an electric razor, covering an area of 2 cm×4 cm, and then the residual hair was removed with a hair removal cream. The subcutaneous injections of TP on the shaved backs of the mice in the AGA model was continued until the end of the experimental period, and the administration of TP in each of the treatment groups was begun on the 1st day of the dehairing process.
In addition to the normal control group (denoted as control) n=20, all mice injected subcutaneously with TP were randomly divided into the following groups (n=20): the model group (denoted as model), the 1% JP1 (skin-coated), and the 1% JP1+MTA group. […] MTA was administered at a dose of 0.3 mg/kg/d, qd, intraperitoneally, 100 μL/dose.
Mice were weighed every two days during the experiment. Skin color was assessed against skin score charts. The mice were euthanized and treated at the end of the experiment, and skin tissues were taken from the dorsal decorticated area of the mice. Some of the tissues were fixed with 4% paraformaldehyde solution and then paraffin sections were made for H&E or immunofluorescence staining, etc., and some of the tissues were stored in the refrigerator at −80° C. for relevant molecular expression assays (qRT-PCR, Western Blot, IP, etc.).
8.1) Sampling and fixation: After the experiment, skin tissue was taken from the depilated area on the back of the mouse and placed in a 10 mL EP tube. 4% paraformaldehyde was added to the EP tube, and all tissues were immersed to denature and coagulate the proteins of the skin tissue. The original morphology and structure of the cells were maintained.
8.6) H&E staining: the sections pretreated in distilled water were put into aqueous hematoxylin solution for a few minutes for staining. The color was separated in acid water and ammonia for a few seconds each. After rinsing in running water for 1 h, the sections were placed in distilled water for a few moments. The sections were dehydrated in 70% and 90% alcohol for 10 min each, and stained in alcoholic eosin stain for 2-3 min.

[5] = JP1 permeability experiment (FITC-JP1 applied to depilated skin); settings: 1% FITC-JP1 solution applied to dorsal depilated area
Method: In this Example, to elucidate the mechanism of JP1 penetrating the skin and acting on the hair follicle, a 14-day AGA modeling was performed according to the model design strategy of Example 1 above. Thereafter, a 1% FITC-JP1 solution was applied to the dorsal depilated area of the mice in a light-avoidance environment. Five time points were set at 0.5, 1, 2, 4 and 8 h for observation. The fresh skin tissue was made into frozen sections, and the penetration pathway of JP1 in the skin tissue and the amount of aggregation in the hair follicles were observed under an inverted fluorescence microscope.
15 C57BL/6J male mice were dorsally depilated after two weeks of continuous TP injection. A 1% FITC-JP1 solution was applied locally to the depilated area of the mice on the 1st day after depilation, no light, in five groups of 0.5 h, 1 h, 2 h, 4 h and 8 h (n=3).
The back skin was removed at the corresponding time points and fixed in 4% paraformaldehyde. After 48 h of fixation, the skin tissue was successively dehydrated in 20% and 30% sucrose solution for 2 days each. After gradient dehydration, sections (20 μm) were made using a frozen microtome. Zeiss inverted fluorescence microscope was used to photograph the fluorescent sections.

[6] = system: AR, FOXD3, and FOXI1; assay: qPCR of other predicted SP1 transcription factors in skin tissue; format: in vivo, mouse; settings: P>0.05
Method: Four transcription factors that can bind to the SP1 promoter region were obtained by taking the intersection of the predicted data: E2F1, AR, FOXD3, and FOXI1 (FIG. 13A).
as §1, §2

[7] = system: SP1, Wnt10a, Wnt10b and β-catenin; assay: Immunoblotting of SP1 and downstream molecules in skin, Animal model III; format: in vivo, mouse; settings: 1% JP1
Method: as §3, §4
5.7) Primary antibody incubation: the cut protein bands were placed into the corresponding primary antibody and incubated at 4° C. on a shaker overnight, washed with TBST 3 times for 10 min/time.

[8] = 1% JP1 skin-coated, MTA 0.3 mg/kg/d intraperitoneally

## FPGSDRF-RGD (FPG[pS]DRFRGD) [JP1, amino acid S is phosphorylated; JWA peptide]
[1]
  SRD5A2 mRNA level, difference between groups: no statistically significant difference
[2]; each JP1 intervention group, localized in the site of hair follicles
  integrin αv expression, immunofluorescence staining: elevated
[2]; skin tissue, immunoblotting, JP1 P<0.01
  integrin αv protein level (TP-down-regulated): reversed
[2]; skin tissue, qPCR, P<0.01
  integrin αv expression at the end of the model: returned to control levels
[2]; skin tissue, qPCR, decreased in TP model group, P<0.01
  integrin αv mRNA expression after JP1 intervention: significantly elevated
[3]
  SP1 immunofluorescence: consistent with the protein immunoblotting results
[3]; immunoblotting
  SP1 protein expression level: elevated trend
[3]; qPCR
  SP1 mRNA expression: high expression
[3]; qPCR, P<0.05
  SP1 mRNA expression level, 1% JP1 group vs 0.1% JP1 group: significantly higher than that in the 0.1% JP1 group
[4]; [8]
  skin color on the back, day 8: turned gray
  skin color on the back, day 10: changed significantly to black-gray
[4]; H&E longitudinal section, 1% JP1
  hair follicle morphology at day 8 vs 1% JP1+MTA group: hair follicles extended downward and the bulbous part of hairs expanded
[4]; H&E, day 12, 1% JP1 P<0.001
  diameter of the hair bulb: increased
  thickness of the dermis: increased
[4]; skin transection, day 8 and day 12, P<0.001
  total number of hair follicles vs model group and 1% JP1+MTA group: significantly more
[5]
  fluorescence brightness at 8 h: obviously weakened
[5]; fluorescence
  distribution of the drug in skin at 0.5 h: basically covered the surface of the skin
[6]
  mRNA expression of other molecules (predicted SP1 transcription factors): did not change significantly
[7]
  expression levels of key molecules (SP1, Wnt10a, Wnt10b, β-catenin), day 4: did not change significantly
  protein expression levels of four molecules (SP1, Wnt10a, Wnt10b, β-catenin), day 8: increased significantly
